Experiments:
[1] = target: T1, DrSOD^β-pro (Deinococcus radiodurans, UniProt Q9RYV4); assay: pH-indicator (p-nitrophenol, […] nm) lactonase assay; type: biochemical; conditions: pH 7.0, 20 mM CaCl2; 2 mM substrate
T1 construct: gene DR_A0202; C-terminal beta-propeller domain (Leu185-Phe462), N-terminal 6xHis removed with HRV3C, E. coli BL21(DE3), monomer and dimer

[2] = target: the molecule itself; assay: SEC-MALS; 25 μM protein loaded on a gel filtration column (LW-803, SHODEX); MN buffer (50 mM MOPS, 100 mM NaCl, pH 7.0) for the holo forms, MN buffer with 5 mM EDTA for the metal-free apo state; monomer against dimer

In the case of `O=C1Cc2ccccc2O1` [2-coumaranone], the “pH-indicator (p-nitrophenol, 405 nm) lactonase assay” value [1] is reported as “lactonase activity of DrSOD toward 2-coumaranone was attributed to DrSOD^β-pro but not DrSOD^SOD”.

B1: six-bladed β-propeller domain of DrSOD (DrSOD^β-pro) (domain or fragment, Deinococcus radiodurans, UniProt Q9RYV4 185-462, looked up)
chain: LSVRDYALPGPVDHPEGVAYDAKKGLIYTGSAQNGTIYAINAQSGAVTKFQEGGAYGRQVALGLKVDPQGRLWIAGGAQGTVSILTPDGMTLAVLETPKSPRPYINDLVLAPDGNFYVTDSSRPVIFRVDKALKLTAWLDLAGTPIKYGPGVNLNGIAATPDGKYLLAVQLNTGELWRIDLKTKAVKKVMDGLVNGDGLLLDGRTLYVARNKDQVVAKVSLSADYGSGQLVAQEPLNGLRFPATLAKVGNDLVVTQAQLDRIGGTPETPFKLTRFAKF
notes: β-propeller (SGL) domain of DrSOD (DRA0202), Deinococcus radiodurans, UniProt Q9RYV4, residues Leu185-Phe462; Eluted as a mixture of monomer and dimer; source: E. coli BL21(DE3), purified (cOmplete His-Tag column, HRV3C, gel filtration); not shown: His6, N-terminal, cleaved
In the case of B1, the “stoichiometry N” value [2] is reported as 2.
